This note sets out measurements from ChEMBL document CHEMBL4602617, “Discovery and optimization of heteroaryl piperazines as potent and selective PI3Kδ inhibitors” (Bioorg Med Chem Lett, 2020).

A short description of series [1]: Clearance in human liver microsomes. In kind it is ADME, Microsome. The note with it: read-out: CLH. (In general: Microsomes from liver hold many membrane-bound enzymes, among them those of drug oxidation.)
A short description of series [2]: Clearance in rat liver microsomes. Type of series: ADME, Microsome. To be noted: read-out: CLH.
For series [3], the species on record is Homo sapiens. The experiment in a line: Selectivity index, ratio IC50 for inhibition of recombinant human full-length N-terminal His6-tagged p110beta/untagged full-length p85alpha expressed in baculovirus infected Sf21 cells to ratio IC50 for inhibition of recombinant human full-length N-terminal GST-tagged p110delta/untagged full-length p85alpha expressed in baculovirus infected Sf21 cells.

The species named for series [4] is Homo sapiens. The experiment in a line: Selectivity index, ratio IC50 for inhibition of recombinant human full-length N-terminal His6-tagged p110alpha/untagged full-length p85alpha expressed in baculovirus infected Sf21 cells to ratio IC50 for inhibition of recombinant human full-length N-terminal GST-tagged p110delta/untagged full-length p85alpha expressed in baculovirus infected Sf21 cells.

Series [5] addresses PI3-kinase p110-delta/p85-alpha (Homo sapiens, UniProt O00329). The experiment in a line: Inhibition of recombinant human full-length N-terminal GST-tagged p110delta/untagged full-length p85alpha expressed in baculovirus infected Sf21 cells using PIP2 as substrate preincubated for 15 mins followed by substrate addition and measured after 1 hr by HTRF assay.
Series [6] is filed under the species Homo sapiens. Put plainly: Selectivity index, ratio IC50 for inhibition of recombinant human N-terminal His6-tagged full-length p120gamma expressed in Sf21 insect cells to ratio IC50 for inhibition of recombinant human full-length N-terminal GST-tagged p110delta/untagged full-length p85alpha expressed in baculovirus infected Sf21 cells.
The nature of series [7]: Distribution coefficient, logD of compound by HPLC analysis. In kind it is physicochemical. To be noted: octanol/water.

PI3-kinase p110-delta/p85-alpha, sequence (P27986 whole entry): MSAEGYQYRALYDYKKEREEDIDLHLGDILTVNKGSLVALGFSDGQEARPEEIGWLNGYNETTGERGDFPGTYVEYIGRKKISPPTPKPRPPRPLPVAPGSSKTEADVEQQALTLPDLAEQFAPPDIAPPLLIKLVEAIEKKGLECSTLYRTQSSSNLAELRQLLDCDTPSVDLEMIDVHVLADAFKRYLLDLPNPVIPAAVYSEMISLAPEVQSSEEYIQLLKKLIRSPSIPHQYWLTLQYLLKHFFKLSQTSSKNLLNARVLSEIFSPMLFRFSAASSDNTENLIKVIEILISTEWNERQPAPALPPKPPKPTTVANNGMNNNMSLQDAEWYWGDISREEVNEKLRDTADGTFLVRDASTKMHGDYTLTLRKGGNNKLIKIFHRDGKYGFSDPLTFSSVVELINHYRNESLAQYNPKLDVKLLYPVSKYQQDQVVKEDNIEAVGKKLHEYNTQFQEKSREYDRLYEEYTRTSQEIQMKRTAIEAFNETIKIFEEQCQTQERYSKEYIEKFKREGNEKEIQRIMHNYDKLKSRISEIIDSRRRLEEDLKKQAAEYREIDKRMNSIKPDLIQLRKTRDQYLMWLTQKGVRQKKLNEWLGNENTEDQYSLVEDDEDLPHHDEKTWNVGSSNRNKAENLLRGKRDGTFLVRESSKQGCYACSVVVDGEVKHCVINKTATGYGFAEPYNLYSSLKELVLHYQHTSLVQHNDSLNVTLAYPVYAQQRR
PI3-kinase p110-delta/p85-alpha, sequence (O00329 whole entry): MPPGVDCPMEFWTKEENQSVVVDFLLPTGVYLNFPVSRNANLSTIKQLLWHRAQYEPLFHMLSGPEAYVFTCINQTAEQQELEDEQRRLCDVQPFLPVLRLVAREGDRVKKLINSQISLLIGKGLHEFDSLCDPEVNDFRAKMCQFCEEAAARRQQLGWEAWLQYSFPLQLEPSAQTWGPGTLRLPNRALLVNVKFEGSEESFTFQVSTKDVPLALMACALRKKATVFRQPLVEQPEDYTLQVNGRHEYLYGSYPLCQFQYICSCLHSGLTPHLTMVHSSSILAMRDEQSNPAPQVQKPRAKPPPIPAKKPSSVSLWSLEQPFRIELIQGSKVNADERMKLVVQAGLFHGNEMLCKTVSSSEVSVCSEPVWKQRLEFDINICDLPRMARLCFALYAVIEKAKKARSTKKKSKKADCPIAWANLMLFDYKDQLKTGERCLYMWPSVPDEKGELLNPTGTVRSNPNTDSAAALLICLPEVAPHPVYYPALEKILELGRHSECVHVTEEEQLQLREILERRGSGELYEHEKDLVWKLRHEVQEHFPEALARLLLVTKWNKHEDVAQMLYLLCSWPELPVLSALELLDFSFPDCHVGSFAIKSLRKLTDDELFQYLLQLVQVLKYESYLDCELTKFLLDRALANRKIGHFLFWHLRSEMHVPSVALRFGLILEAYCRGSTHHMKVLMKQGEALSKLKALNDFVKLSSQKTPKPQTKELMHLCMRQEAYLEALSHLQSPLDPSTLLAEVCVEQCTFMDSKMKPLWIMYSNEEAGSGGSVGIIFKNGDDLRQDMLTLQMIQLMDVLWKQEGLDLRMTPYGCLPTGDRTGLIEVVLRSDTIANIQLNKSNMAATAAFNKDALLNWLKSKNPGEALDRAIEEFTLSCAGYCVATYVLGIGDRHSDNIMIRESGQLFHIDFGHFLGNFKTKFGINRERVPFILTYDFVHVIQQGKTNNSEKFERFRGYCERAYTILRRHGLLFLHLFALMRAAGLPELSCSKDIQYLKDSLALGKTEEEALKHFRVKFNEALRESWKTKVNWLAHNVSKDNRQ

Turning to `Cn1cc(-c2ncc(C#N)c(N3CCN(c4cccc(F)c4)C(C)(C)C3)n2)cn1`, the CLint scaled amounted to 91 mL/min/kg in series [1] and 2050 mL/min/kg in series [2]. Besides, the Ratio IC50 in the series filed under Homo sapiens [3], in the series filed under Homo sapiens [4] and in the series listed under Homo sapiens [6] was above 8 in each case. Besides, the IC50 in series [5] amounted to 1520 nM. The molecule further returned a log distribution coefficient (logD) in series [7] of 3.6.

With `Cn1cc(-c2ncc(C#N)c(N3CC4CCC(C3)N4c3cccc(F)c3)n2)cn1`, the results for the CLint scaled in series [1] and in series [2] were 62 mL/min/kg and 529 mL/min/kg, respectively. Also, the Ratio IC50 in the series listed under Homo sapiens [3], in the series filed under Homo sapiens [4] and in the series filed under Homo sapiens [6] was above 12 each time. Moreover, the half-maximal inhibitory concentration (IC50) in series [5] turned out to be 1030 nM. The molecule further gave a logD in series [7] of 3.3.

In the case of `N#Cc1cnc(-c2ccnc3[nH]ccc23)nc1N1C[C@@H]2C[C@H]1CN2c1cccc(F)c1`, the values for the Ratio IC50 in the series listed under Homo sapiens [3], in the series listed under Homo sapiens [4] and in the series listed under Homo sapiens [6] were 93, 76 and 225, respectively. Moreover, the concentration for half-maximal inhibition (IC50) in series [5] was found to be 56 nM. This molecule also came in with a logD in series [7] of 3.4.

On to `N#Cc1cnc(-c2ccccc2)nc1N1C[C@@H]2C[C@H]1CN2c1cccc(F)c1`, for which, in series [5], the half-inhibitory concentration (IC50) is above 10000 nM. In series [7], the logD is 4.5.

As for `C[C@@H]1CN(c2nc(-c3cnn(C)c3)ncc2C#N)CCN1c1cccc(F)c1`, the Ratio IC50 in the series filed under Homo sapiens [3], in the series filed under Homo sapiens [4] and in the series filed under Homo sapiens [6] was above 76 throughout. Further, in series [5], the IC50 amounted to 165 nM. For the same molecule, the logD in series [7] was determined as 3.3.

Take `N#Cc1cnc(N2Cc3cn[nH]c3C2)nc1N1C[C@@H]2C[C@H]1CN2c1cccc(F)c1`: the Ratio IC50 in the series listed under Homo sapiens [3], in the series listed under Homo sapiens [4] and in the series listed under Homo sapiens [6] was above 146 in each case. Besides, the IC50 in series [5] was found to be 86 nM. Moreover, in series [7], the logD was found to be 2.9.

As to `Cn1cc(-c2ncc(C#N)c(N3CCN(c4cccc(F)c4)CC3)n2)cn1`, the Ratio IC50 in the series listed under Homo sapiens [3], in the series filed under Homo sapiens [4] and in the series listed under Homo sapiens [6] was above 8 each time. In series [5], the concentration for half-maximal inhibition (IC50) was determined as 1600 nM. This molecule returned a logD in series [7] of 3.2.

In the case of `N#Cc1cnc(-c2cccnc2)nc1N1C[C@@H]2C[C@H]1CN2c1cccc(Cl)c1`, the Ratio IC50 in the series filed under Homo sapiens [3] was 14; in the series listed under Homo sapiens [4], 62; in the series listed under Homo sapiens [6], above 105. The half-maximal inhibitory concentration (IC50) in series [5] turned out to be 474 nM. In series [7], this molecule yielded a log distribution coefficient (logD) of 3.82.

Regarding `N#Cc1cnc(-c2cnc3[nH]ccc3c2)nc1N1C[C@@H]2C[C@H]1CN2c1cccc(F)c1`, the Ratio IC50 was above 14 in the series filed under Homo sapiens [3], 8 in the series listed under Homo sapiens [4] and above 14 in the series filed under Homo sapiens [6]. In addition, in series [5], the IC50 was 918 nM.

Take `CCNC(=O)N1C[C@@H]2C[C@H]1CN2c1nc(-c2cnn(C)c2)ncc1C#N`: the Ratio IC50 was 6 in the series listed under Homo sapiens [3], above 6 in the series filed under Homo sapiens [4] and 6 in the series listed under Homo sapiens [6]. Also, the half-maximal inhibitory concentration (IC50) in series [5] was found to be 2190 nM. For the same molecule, the logD in series [7] came out at 0.8.

As a reminder, the IC50 is the concentration that gives 50% inhibition. What is called logD is the decadic logarithm of the distribution of all forms, ionised or not, between an organic phase and buffer at a given pH. Low readings indicate a more hydrophilic compound, high ones a more lipophilic compound.
